From PubChem BioAssay (NCI)
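Following 48 hours of exposure in 96-well plates, responses at five concentrations were used to interpolate endpoints linearly. At the GI50, growth is halved. TGI is the concentration that stops growth completely.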

Key:
Experiment in all cases: DTP human tumour cell line panel, 48 h
786-0 renal = test system: 786-0 renal
A498 renal = test system: A498 renal
A549 NSCLC = test system: A549 NSCLC
ACHN renal = test system: ACHN renal
BT-549 breast = test system: BT-549 breast
CAKI-1 renal = test system: CAKI-1 renal
COLO 205 colon = test system: COLO 205 colon
DU-145 prostate = test system: DU-145 prostate
EKVX NSCLC = test system: EKVX NSCLC
HCC-2998 colon = test system: HCC-2998 colon
HCT-116 colon = test system: HCT-116 colon
HCT-15 colon = test system: HCT-15 colon
HL-60(TB) leukemia = test system: HL-60(TB) leukemia
HOP-62 NSCLC = test system: HOP-62 NSCLC
HOP-92 NSCLC = test system: HOP-92 NSCLC
HS 578T breast = test system: HS 578T breast
HT29 colon = test system: HT29 colon
IGROV1 ovarian = test system: IGROV1 ovarian
KM12 colon = test system: KM12 colon
M14 melanoma = test system: M14 melanoma
MALME-3M melanoma = test system: MALME-3M melanoma
MDA-MB-435 = test system: MDA-MB-435
MDA-N = test system: MDA-N
MOLT-4 leukemia = test system: MOLT-4 leukemia
NCI-H23 lung = test system: NCI-H23 lung
NCI-H460 lung = test system: NCI-H460 lung
NCI-H522 lung = test system: NCI-H522 lung
OVCAR-3 ovarian = test system: OVCAR-3 ovarian
OVCAR-4 ovarian = test system: OVCAR-4 ovarian
OVCAR-5 ovarian = test system: OVCAR-5 ovarian
OVCAR-8 ovarian = test system: OVCAR-8 ovarian
PC-3 prostate = test system: PC-3 prostate
RPMI-8226 leukemia = test system: RPMI-8226 leukemia
RXF 393 renal = test system: RXF 393 renal
SF-268 CNS = test system: SF-268 CNS
SF-295 CNS = test system: SF-295 CNS
SF-539 CNS = test system: SF-539 CNS
SK-MEL-28 melanoma = test system: SK-MEL-28 melanoma
SK-MEL-5 melanoma = test system: SK-MEL-5 melanoma
SK-OV-3 ovarian = test system: SK-OV-3 ovarian
SN12C renal = test system: SN12C renal
SNB-19 CNS = test system: SNB-19 CNS
SNB-75 CNS = test system: SNB-75 CNS
SR leukemia = test system: SR leukemia
SW-620 colon = test system: SW-620 colon
TK-10 renal = test system: TK-10 renal
U251 CNS = test system: U251 CNS
UACC-257 melanoma = test system: UACC-257 melanoma
UACC-62 melanoma = test system: UACC-62 melanoma
UO-31 renal = test system: UO-31 renal
CCRF-CEM leukemia = test system: CCRF-CEM leukemia
K-562 leukemia = test system: K-562 leukemia
LOX IMVI melanoma = test system: LOX IMVI melanoma
MCF7 breast = test system: MCF7 breast
MDA-MB-231 breast = test system: MDA-MB-231 breast
NCI-H226 lung = test system: NCI-H226 lung
NCI/ADR-RES ovarian = test system: NCI/ADR-RES ovarian
SK-MEL-2 melanoma = test system: SK-MEL-2 melanoma
T-47D breast = test system: T-47D breast

COC(C)(C)C1(O)CCC(C)CC1=O (centres undefined)
TGI (786-0 renal): > 100 µM | TGI (A498 renal): > 100 µM | TGI (A549 NSCLC): > 100 µM | TGI (ACHN renal): > 100 µM | TGI (BT-549 breast): > 100 µM | TGI (CAKI-1 renal): > 100 µM | TGI (COLO 205 colon): > 100 µM | TGI (DU-145 prostate): > 100 µM | TGI (EKVX NSCLC): > 100 µM | TGI (HCC-2998 colon): > 100 µM | TGI (HCT-116 colon): > 100 µM | TGI (HCT-15 colon): > 100 µM | TGI (HL-60(TB) leukemia): > 100 µM | TGI (HOP-62 NSCLC): > 100 µM | TGI (HOP-92 NSCLC): > 100 µM | TGI (HS 578T breast): > 100 µM | TGI (HT29 colon): > 100 µM | TGI (IGROV1 ovarian): > 100 µM | TGI (KM12 colon): > 100 µM | TGI (M14 melanoma): > 100 µM | TGI (MALME-3M melanoma): > 100 µM | TGI (MDA-MB-435): > 100 µM | TGI (MDA-N): > 100 µM | TGI (MOLT-4 leukemia): > 100 µM | TGI (NCI-H23 lung): > 100 µM | TGI (NCI-H460 lung): > 100 µM | TGI (NCI-H522 lung): > 100 µM | TGI (OVCAR-3 ovarian): > 100 µM | TGI (OVCAR-4 ovarian): > 100 µM | TGI (OVCAR-5 ovarian): > 100 µM | TGI (OVCAR-8 ovarian): > 100 µM | TGI (PC-3 prostate): > 100 µM | TGI (RPMI-8226 leukemia): > 100 µM | TGI (RXF 393 renal): > 100 µM | TGI (SF-268 CNS): > 100 µM | TGI (SF-295 CNS): > 100 µM | TGI (SF-539 CNS): > 100 µM | TGI (SK-MEL-28 melanoma): > 100 µM | TGI (SK-MEL-5 melanoma): > 100 µM | TGI (SK-OV-3 ovarian): > 100 µM | TGI (SN12C renal): > 100 µM | TGI (SNB-19 CNS): > 100 µM | TGI (SNB-75 CNS): > 100 µM | TGI (SR leukemia): > 100 µM | TGI (SW-620 colon): > 100 µM | TGI (TK-10 renal): > 100 µM | TGI (U251 CNS): > 100 µM | TGI (UACC-257 melanoma): > 100 µM | TGI (UACC-62 melanoma): > 100 µM | TGI (UO-31 renal): > 100 µM

COc1ccc(C(=O)c2cc3c(N)c(C(=O)Nc4ccc(C)cc4)sc3nc2C)cc1
GI50 (786-0 renal): 4.48 µM | TGI (786-0 renal): 19.1 µM | GI50 (A498 renal): 1.5 µM | TGI (A498 renal): 9.59 µM | GI50 (A549 NSCLC): 3.96 µM | TGI (A549 NSCLC): > 100 µM | GI50 (ACHN renal): 5.28 µM | TGI (ACHN renal): 29.2 µM | GI50 (BT-549 breast): 4.83 µM | TGI (BT-549 breast): 41.8 µM | GI50 (CAKI-1 renal): 2.35 µM | TGI (CAKI-1 renal): 20.4 µM | GI50 (CCRF-CEM leukemia): 3.76 µM | TGI (CCRF-CEM leukemia): > 100 µM | GI50 (COLO 205 colon): 3.47 µM | TGI (COLO 205 colon): > 100 µM | GI50 (DU-145 prostate): 3.63 µM | TGI (DU-145 prostate): 27.4 µM | GI50 (EKVX NSCLC): 5.59 µM | TGI (EKVX NSCLC): > 100 µM | GI50 (HCC-2998 colon): 4.01 µM | TGI (HCC-2998 colon): > 100 µM | GI50 (HCT-116 colon): 3.19 µM | TGI (HCT-116 colon): 22.2 µM | GI50 (HCT-15 colon): 1.27 µM | TGI (HCT-15 colon): > 100 µM | GI50 (HL-60(TB) leukemia): 2.78 µM | TGI (HL-60(TB) leukemia): 10.3 µM | GI50 (HOP-62 NSCLC): 4.43 µM | TGI (HOP-62 NSCLC): 31.5 µM | GI50 (HOP-92 NSCLC): 2.15 µM | TGI (HOP-92 NSCLC): 21.9 µM | GI50 (HS 578T breast): 2.29 µM | TGI (HS 578T breast): 17.9 µM | GI50 (HT29 colon): 2.74 µM | TGI (HT29 colon): 15.2 µM | GI50 (IGROV1 ovarian): 6.25 µM | TGI (IGROV1 ovarian): 38.2 µM | GI50 (K-562 leukemia): 1.28 µM | TGI (K-562 leukemia): > 100 µM | GI50 (KM12 colon): 2.44 µM | TGI (KM12 colon): > 100 µM | GI50 (LOX IMVI melanoma): 4.94 µM | TGI (LOX IMVI melanoma): > 100 µM | GI50 (M14 melanoma): 1.99 µM | TGI (M14 melanoma): 62.9 µM | GI50 (MALME-3M melanoma): 4.46 µM | TGI (MALME-3M melanoma): 39.3 µM | GI50 (MCF7 breast): 1.43 µM | TGI (MCF7 breast): > 100 µM | GI50 (MDA-MB-231 breast): 2.7 µM | TGI (MDA-MB-231 breast): 13.2 µM | GI50 (MDA-MB-435): 0.275 µM | TGI (MDA-MB-435): 1.35 µM | GI50 (MOLT-4 leukemia): 3.92 µM | TGI (MOLT-4 leukemia): > 100 µM | GI50 (NCI-H226 lung): 4.22 µM | TGI (NCI-H226 lung): 30.8 µM | GI50 (NCI-H23 lung): 6.24 µM | TGI (NCI-H23 lung): 44 µM | GI50 (NCI-H460 lung): 2.99 µM | TGI (NCI-H460 lung): 14.2 µM | GI50 (NCI-H522 lung): 2.06 µM | TGI (NCI-H522 lung): 11.2 µM | GI50 (NCI/ADR-RES ovarian): 2.55 µM | TGI (NCI/ADR-RES ovarian): 15.4 µM | GI50 (OVCAR-3 ovarian): 2.25 µM | TGI (OVCAR-3 ovarian): 7.18 µM | GI50 (OVCAR-4 ovarian): 5.55 µM | TGI (OVCAR-4 ovarian): > 100 µM | GI50 (OVCAR-5 ovarian): 7.13 µM | TGI (OVCAR-5 ovarian): > 100 µM | GI50 (OVCAR-8 ovarian): 5.25 µM | TGI (OVCAR-8 ovarian): > 100 µM | GI50 (PC-3 prostate): 4.2 µM | TGI (PC-3 prostate): > 100 µM | GI50 (RXF 393 renal): 2.48 µM | TGI (RXF 393 renal): 9.38 µM | GI50 (SF-268 CNS): 5.66 µM | TGI (SF-268 CNS): 48.7 µM | GI50 (SF-295 CNS): 2.51 µM | TGI (SF-295 CNS): 15 µM | GI50 (SF-539 CNS): 2.5 µM | TGI (SF-539 CNS): 9.38 µM | GI50 (SK-MEL-2 melanoma): 4.04 µM | TGI (SK-MEL-2 melanoma): 34.7 µM | GI50 (SK-MEL-28 melanoma): 13.6 µM | TGI (SK-MEL-28 melanoma): > 100 µM | GI50 (SK-MEL-5 melanoma): 3.14 µM | TGI (SK-MEL-5 melanoma): 11.5 µM | GI50 (SK-OV-3 ovarian): 5.59 µM | TGI (SK-OV-3 ovarian): 33.1 µM | GI50 (SN12C renal): 6.93 µM | TGI (SN12C renal): > 100 µM | GI50 (SNB-19 CNS): 4.22 µM | TGI (SNB-19 CNS): 30.9 µM | GI50 (SNB-75 CNS): 0.571 µM | TGI (SNB-75 CNS): 5.99 µM | GI50 (SR leukemia): 0.525 µM | TGI (SR leukemia): > 100 µM | GI50 (SW-620 colon): 3.61 µM | TGI (SW-620 colon): > 100 µM | GI50 (T-47D breast): 4.78 µM | TGI (T-47D breast): 91.7 µM | GI50 (TK-10 renal): 6.81 µM | TGI (TK-10 renal): 25.2 µM | GI50 (U251 CNS): 3.6 µM | TGI (U251 CNS): 28.8 µM | GI50 (UACC-257 melanoma): 20.4 µM | TGI (UACC-257 melanoma): > 100 µM | GI50 (UACC-62 melanoma): 12.2 µM | TGI (UACC-62 melanoma): > 100 µM | GI50 (UO-31 renal): 3.11 µM | TGI (UO-31 renal): 27.3 µM
